According to PubChem BioAssay (NCI):
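GI50 is the concentration that inhibits growth by half. At the TGI there is no net growth.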

Columns and labels:
Test in all cases: NCI tumour cell line growth inhibition, 384-well format
[1] = tested on: MOLT-4 leukemia
[2] = tested on: NCI-H226 lung
[3] = tested on: NCI-H23 lung
[4] = tested on: NCI-H322M lung
[5] = tested on: NCI-H460 NSCLC
[6] = tested on: NCI-H522 lung
[7] = tested on: NCI/ADR-RES ovarian
[8] = tested on: OVCAR-3 ovarian
[9] = tested on: OVCAR-4 ovarian
[10] = tested on: OVCAR-8 ovarian
[11] = tested on: PC-3 prostate
[12] = tested on: RPMI-8226 leukemia
[13] = tested on: RXF 393 renal
[14] = tested on: SF-268 CNS
[15] = tested on: SF-295 CNS
[16] = tested on: SF-539 CNS
[17] = tested on: SK-MEL-28 melanoma
[18] = tested on: SK-MEL-5 melanoma
[19] = tested on: SK-OV-3 ovarian
[20] = tested on: SN12C renal
[21] = tested on: SNB-19 CNS
[22] = tested on: SNB-75 CNS
[23] = tested on: SR leukemia
[24] = tested on: SW-620 colon
[25] = tested on: T-47D breast
[26] = tested on: TK-10 renal
[27] = tested on: U251 glioblastoma
[28] = tested on: UACC-257 melanoma

Nc1ccccc1NC(=O)c1ccc(CNc2nccc(-c3cccnc3)n2)cc1
GI50 [1]: 150 nM | TGI [1]: 285 nM | GI50 [2]: 543 nM | TGI [2]: 2120 nM | GI50 [3]: 248 nM | TGI [3]: 1320 nM | GI50 [4]: 410 nM | TGI [4]: 1790 nM | GI50 [5]: 216 nM | TGI [5]: 1300 nM | GI50 [6]: 301 nM | TGI [6]: 1390 nM | GI50 [7]: 332 nM | TGI [7]: 1270 nM | GI50 [8]: 374 nM | TGI [8]: 1680 nM | GI50 [9]: 371 nM | TGI [9]: 1670 nM | GI50 [10]: 242 nM | TGI [10]: 1180 nM | GI50 [11]: 408 nM | TGI [11]: 8810 nM | GI50 [12]: 28.2 nM | TGI [12]: 75.2 nM | GI50 [13]: 114 nM | TGI [13]: 426 nM | GI50 [14]: 225 nM | TGI [14]: 555 nM | GI50 [15]: 159 nM | TGI [15]: 306 nM | GI50 [16]: 473 nM | TGI [16]: 2490 nM | GI50 [17]: 190 nM | TGI [17]: 368 nM | GI50 [18]: 196 nM | TGI [18]: 359 nM | GI50 [19]: 258 nM | TGI [19]: 1380 nM | GI50 [20]: 593 nM | TGI [20]: 1850 nM | GI50 [21]: 740 nM | TGI [21]: 2540 nM | GI50 [22]: 386 nM | TGI [22]: 7580 nM | GI50 [23]: 32.6 nM | TGI [23]: 148 nM | GI50 [24]: 208 nM | TGI [24]: 657 nM | GI50 [25]: 198 nM | TGI [25]: 409 nM | GI50 [26]: 244 nM | TGI [26]: 1180 nM | GI50 [27]: 159 nM | TGI [27]: 333 nM | GI50 [28]: 169 nM | TGI [28]: 344 nM
